Test results from the supplement of paper PMC10307832.

Experiments:
Assay in all cases: relative viability (nuclei count vs DMSO), 5 days (fraction); higher = more cells survive
[1] = compound: COc1cc(N2CCC(N3CCN(C)CC3)CC2)ccc1Nc1ncc(Cl)c(Nc2ccccc2S(=O)(=O)C(C)C)n1 [NVP-TAE684] + O=C(CCCCCCC(=O)Nc1ccccc1)NO [Vorinostat] (partner 1 µM)
Method in brief: (§1)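 Nuclei were stained with Hoechst during a one-step fixation (final 0.05% Triton X-100, 1% formaldehyde, 1 ug/ml Hoechst) carried out 5 days after dosing, then counted on 4× images. The cells, lung cancer lines in 1536-well plates, had been dosed by pin tool the day after seeding with one drug alone or a fixed anchor-drug dose plus five library-drug doses (not always all listed) in √10 steps. Relative viability is the nuclei count in treated wells divided by that in vehicle wells, and each value is the median of duplicate plates.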

[2] = compound: COc1cc(N2CCC(N3CCN(C)CC3)CC2)ccc1Nc1ncc(Cl)c(Nc2ccccc2S(=O)(=O)C(C)C)n1 [NVP-TAE684] + CS(=O)(=O)N1CCN(Cc2cc3nc(-c4cccc5[nH]ncc45)nc(N4CCOCC4)c3s2)CC1 [Pictilisib] (partner 1 µM)
Method in brief: as §1

[3] = compound: COc1cc(N2CCC(N3CCN(C)CC3)CC2)ccc1Nc1ncc(Cl)c(Nc2ccccc2S(=O)(=O)C(C)C)n1 [NVP-TAE684] + N=C(N)NC(=N)NCCc1ccccc1 [Phenformin] (partner 250 µM)
Method in brief: as §1

[4] = compound: C1=CC=C2C(=C1)N=C(S2)C(C#N)C3=NC(=NC=C3)NCCC4=CN=CC=C4 + CC(C)C[C@H](NC(=O)[C@H](Cc1ccccc1)NC(=O)c1cnccn1)B(O)O [Bortezomib] (partner 0.002 µM)
Method in brief: as §1

[5] = compound: C#Cc1cccc(Nc2ncnc3cc(OC)c(OCCCCCCC(=O)NO)cc23)c1 [CUDC-101] + CS(=O)(=O)N1CCN(Cc2cc3nc(-c4cccc5[nH]ncc45)nc(N4CCOCC4)c3s2)CC1 [Pictilisib] (partner 1 µM)
Method in brief: as §1

UMC-11 showed a relative viability ([1]; first compound 0.2 µM) of 0.385, a relative viability ([1]; first compound 0.6325 µM) of 0.336 and a relative viability ([1]; first compound 2 µM) of 0.186. For the same cell line, the relative viability ([2]; first compound 0.2 µM) was 0.979, the relative viability ([2]; first compound 2 µM) was 0.586 and the relative viability ([3]; first compound 0.2 µM) was 0.355. The relative viability ([3]; first compound 0.6325 µM) was 0.32, the relative viability ([3]; first compound 2 µM) was 0.268 and the relative viability ([4]; first compound 0.005 µM) was 0.458. It also gave a relative viability ([4]; first compound 0.01581 µM) of 0.695, a relative viability ([4]; first compound 0.05 µM) of 0.901 and a relative viability ([4]; first compound 0.1581 µM) of 0.875. For the same cell line, the relative viability ([4]; first compound 0.5 µM) was 0.488, the relative viability ([5]; first compound 0.01 µM) was 0.857 and the relative viability ([5]; first compound 0.03162 µM) was 0.775. It also gave a relative viability ([5]; first compound 0.1 µM) of 0.679, a relative viability ([5]; first compound 0.3162 µM) of 0.575 and a relative viability ([5]; first compound 1 µM) of 0.108.
